Test results taken from the NIST ThermoML archive (doi:10.1016/j.fluid.2013.07.028).
± gives the expanded uncertainty stated by the source.

Key:
[1] = refractive index (Na D-line) (dimensionless); conditions: 298.15 K; 101.33 kPa; Liquid; Standard Abbe refractometry
[2] = 298.15 K; 101.33 kPa; Liquid; Vibrating tube method

Row | SMILES | refractive index [1] | mass density [2]
1 | CC(=O)[O-].CCn1cc[n+](C)c1 [1-ethyl-3-methylimidazolium acetate] | 1.50069 ± 0.001 | 1099.02 ± 8.4 kg/m3
2 | CCOP(=O)([O-])OCC.CCn1cc[n+](C)c1 [1-ethyl-3-methylimidazolium diethyl phosphate] | 1.47304 ± 0.001 | 1148.4 ± 9.2 kg/m3
3 | CCCCCC [hexane] | 1.37236 ± 0.00037 | 655.09 ± 0.33 kg/m3
4 | c1ccncc1 [pyridine] | 1.50636 ± 0.00033 | 978.04 ± 0.12 kg/m3
5 | c1ccsc1 [thiophene] | 1.52523 ± 0.00033 | 1058.61 ± 0.15 kg/m3
6 | Cc1ccccc1 [toluene] | 1.49367 ± 0.00033 | 862.18 ± 0.16 kg/m3
